Experimental findings from patent US8697706B2 (priority 2011, dated 2014) are described below.

What is called EC50 is the concentration that produces a half-maximal response. High values mean lower potency in that assay, low ones higher potency in that assay.

In the test the test system is HCV pseudoparticles (genotype 1a HCV E1 and E2 envelope, H77C isolate). In words: microbe, parasite or virus in culture. The class given is cell-based, HCV genotype 1a (H77C isolate). The note with it: Hepatitis C virus, Huh-7, 48 h, HCV pseudoparticle entry into Huh7 cells, luciferase measured 2 days after infection.

Some results are limits rather than exact numbers.

In the case of `CC1(C)CNCCCOc2ccc(cc2)CNc2nc(cc(OCC(F)(F)F)n2)Nc2ccc(cc2)C(=O)NC1` [Compound 3001], the EC50 is 0.106 µM (average of duplicate) and 0.1 to 1 µM (class symbol). `CC1(C)CNCCCOc2ccc(cc2)CNc2cc(OCC(F)(F)F)nc(n2)Nc2ccc(cc2)C(=O)NC1` [Compound 3002] registered a concentration giving a half-maximal response (EC50) (class symbol) of less than 0.1 µM.
